System: parathyroid hormone stimulated bone resorption in mouse calvaria
Experiment: parathyroid hormone stimulated bone resorption inhibition activity in vitro in mouse calvaria (antiresorptive activity)
Format: cell-based
Conditions: PTH stimulated

Row | Structure (SMILES) | inhibition at 100 µM [%] | Antiresorptive activity, Inhibition of resorption (%) (100 μM)
1 | CCN(CC)P(=O)(O)C(Cl)(Cl)P(=O)(O)O [(dichloromethylene)bisphosphonic acid mono(diethylamide)] | 43 | –
2 | O=P(O)(O)C(Cl)(Cl)P(=O)(O)O [Clodronate, reference compound] | 43 | –
3 | CCN(CC)P(=O)(OC(C)C)C(Cl)(Cl)P(=O)(O)O (centres unmarked) [(dichloromethylene)bisphosphonic acid P-monoisopropyl ester P-mono(diethylamide)] | – | 44
4 | CCN(CC)P(=O)(O)C(Cl)(Cl)P(=O)(N(CC)CC)N(CC)CC [(dichloromethylene)bisphosphonic acid tris(diethylamide)] | 44 | –
5 | CCN(CC)P(=O)(O)C(Cl)(Cl)P(=O)(O)N(CC)CC [(dichloromethylene)bisphosphonic acid P,P'-bis(diethylamide)] | 38 | –

Reference: patent publication US5442101A, “Methylenebisphosphonic acid derivatives” (Leiras Oy, priority 1990, dated 1995)
